Measured values taken from ChEMBL document CHEMBL1201862, “PubChem BioAssay data set” (2004).
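Exposure lasted 48 hours, with cells grown in 96-well plates and compounds tested at five concentrations. GI50: concentration for 50% inhibition of growth.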 The source made the active and inactive calls. No stated cut-off is given here; in the data, active = GI50 up to about 1.1 µM and inactive = higher.

Assays:
Assay in all cases: DTP human tumour cell line panel, 48 h
[1] = test system: 786-0
[2] = test system: A498
[3] = test system: A549
[4] = test system: ACHN
[5] = test system: BT-549
[6] = test system: CAKI-1
[7] = test system: CCRF-CEM
[8] = test system: COLO 205
[9] = test system: DU-145
[10] = test system: EKVX
[11] = test system: HCC 2998
[12] = test system: HCT-116
[13] = test system: HCT-15
[14] = test system: HOP-62
[15] = test system: HOP-92
[16] = test system: HT-29
[17] = test system: Hs-578T
[18] = test system: IGROV-1
[19] = test system: K562
[20] = test system: KM12
[21] = test system: LOX IMVI
[22] = test system: M14
[23] = test system: MCF7
[24] = test system: MDA-MB-231
[25] = test system: MDA-MB-435
[26] = test system: MDA-N
[27] = test system: MOLT-4
[28] = test system: Malme-3M
[29] = test system: NCI-H226
[30] = test system: NCI-H23
[31] = test system: NCI-H460
[32] = test system: NCI-H522
[33] = test system: NCI/ADR-RES
[34] = test system: OVCAR-3
[35] = test system: OVCAR-4
[36] = test system: OVCAR-5
[37] = test system: OVCAR-8
[38] = test system: PC-3
[39] = test system: RPMI-8226
[40] = test system: RXF 393
[41] = test system: SF-268
[42] = test system: SF-295
[43] = test system: SK-MEL-28
[44] = test system: SK-MEL-2
[45] = test system: SK-MEL-5
[46] = test system: SK-OV-3
[47] = test system: SN12C
[48] = test system: SNB-19
[49] = test system: SNB-75
[50] = test system: SR
[51] = test system: SW-620
[52] = test system: T47D
[53] = test system: TK-10
[54] = test system: U-251
[55] = test system: UACC-257
[56] = test system: UACC-62
[57] = test system: UO-31

Measured: GI50

CCCC(=O)OCOC(=O)N(C)/N=N/c1ccc(C(=O)OCC)cc1
inactive: [1] 17.7 µM | [2] 29.2 µM | [3] 19.3 µM | [4] 17.5 µM | [5] 26.8 µM | [6] 43.8 µM | [7] 37.6 µM | [8] 18.7 µM | [9] 22.2 µM | [10] 37.9 µM | [11] 15.2 µM | [12] 21.1 µM | [14] 29 µM | [15] 19.4 µM | [16] 18.2 µM | [17] 27.7 µM | [18] 32 µM | [19] 47.6 µM | [20] 26.4 µM | [21] 10.7 µM | [22] 24.3 µM | [23] 17.8 µM | [24] 36.5 µM | [25] 44.1 µM | [26] 28.6 µM | [27] 39.4 µM | [28] 20.1 µM | [29] 92.7 µM | [30] 24.3 µM | [31] 8.97 µM | [32] 17.3 µM | [33] 28.9 µM | [34] 33.7 µM | [35] 39.4 µM | [36] 38 µM | [37] 27.4 µM | [38] 25.1 µM | [39] 49.1 µM | [40] 16.3 µM | [41] 28.3 µM | [42] 15.8 µM | [43] 57.7 µM | [44] 15.2 µM | [45] 29.6 µM | [46] 41.5 µM | [47] 27.2 µM | [48] 68.9 µM | [49] 26.5 µM | [50] 23.7 µM | [51] 19.8 µM | [52] 25.2 µM | [53] 27.9 µM | [54] 25.2 µM | [55] 33.7 µM | [56] 15.4 µM | [57] 22 µM
19.9 µM: [13]
